Measured values from US9802899B2, “Heterocyclic compounds as pesticides” (BAYER CROPSCIENCE AG, priority 2012, dated 2017).

assay: Determination of the log P values by HPLC (formic acid method); type: physicochemical; settings: reversed-phase HPLC column (C 18), reversed-phase column (C 18), acidic range (pH 3.4), 55° C.
Description: 1) Description of Method for Determination of the Log P Values (Formic Acid Method)
Eluents for determination in the acidic range (pH 3.4):
Eluent A: acetonitrile+1 ml of formic acid/liter. Eluent B: water+0.9 ml of formic acid/liter.
The lambda max values were determined in the maxima of the chromatographic signals using the UV spectra from 200 nm to 400 nm.

Compound | chromatographic logP
O=C(Nc1ccn(-c2cccnc2Cl)n1)c1ccccc1I [Compound I-1-139, N-[1-(2-Chloropyridin-3-yl)-1H-pyrazol-3-yl]-2-iodobenzamide] | 2.27
O=C(Nc1ccn(-c2nc(F)c(F)cc2F)n1)c1ccccc1Br [Compound I-1-164, 2-Bromo-N-[1-(3,5,6-trifluoropyridin-2-yl)-1H-pyrazol-3-yl]benzamide] | 2.68
O=C(Nc1ccn(-c2ncnc(F)c2F)n1)c1ccccc1C(F)(F)F [Compound I-1-169, N-[1-(5,6-Difluoropyrimidin-4-yl)-1H-pyrazol-3-yl]-2-(trifluoromethyl)benzamide] | 2.62

same assay, conditions: reversed-phase column (C 18), acidic range (pH 3.4), 55° C.

Compound | log P
O=C(Nc1ccn(-c2cccc(F)c2F)n1)c1ccccc1Cl [Compound I-1-66] | 3.02
O=C(Nc1ccn(-c2cccc(F)c2F)n1)c1ccccc1I [Compound I-1-67] | 3.10
O=C(Nc1ccn(-c2cccc(F)c2F)n1)c1ncccc1C(F)(F)F [Compound I-1-68] | 3.29
O=C(Nc1ccn(-c2cc(F)ccc2F)n1)c1cccnc1C(F)(F)F [Compound I-1-70] | 2.60
Cc1ccsc1C(=O)Nc1ccn(-c2cc(F)ccc2F)n1 [Compound I-1-71] | 3.24
Cc1ccccc1C(=O)Nc1ccn(-c2c(F)cccc2F)n1 [Compound I-1-73] | 2.60
O=C(Nc1ccn(-c2c(F)cccc2F)n1)c1ccccc1C(F)F [Compound I-1-74] | 2.73
CCc1ccccc1C(=O)Nc1ccn(-c2c(F)cccc2F)n1 [Compound I-1-78] | 2.92
O=C(Nc1ccn(-c2c(F)cccc2F)n1)c1ccccc1OC(F)(F)F [Compound I-1-79] | 2.96
O=C(Nc1ccn(-c2c(F)cccc2F)n1)c1ccccc1Cl [Compound I-1-81] | 2.55
O=C(Nc1ccn(-c2c(F)cccc2F)n1)c1c(F)cccc1F [Compound I-1-84] | 2.42
O=C(Nc1ccn(-c2c(F)cccc2F)n1)c1c(F)cccc1Cl [Compound I-1-85] | 2.60
O=C(Nc1ccn(-c2c(F)cccc2F)n1)c1ccccc1O [Compound I-1-87] | 2.66
O=C(Nc1ccn(-c2c(F)cccc2F)n1)c1ccccc1SC(F)(F)F [Compound I-1-88] | 3.15
O=C(Nc1ccn(-c2c(F)cccc2F)n1)c1ccccc1-n1cncn1 [Compound I-1-89] | 1.66
Cc1cccnc1C(=O)Nc1ccn(-c2c(F)cccc2F)n1 [Compound I-1-90] | 2.86
O=C(Nc1ccn(-c2c(F)cccc2F)n1)c1ncccc1Cl [Compound I-1-92] | 2.40
O=C(Nc1ccn(-c2c(F)cccc2F)n1)c1cccnc1C(F)(F)F [Compound I-1-93] | 2.68
O=C(Nc1ccn(-c2c(F)cccc2F)n1)c1cnccc1C(F)(F)F [Compound I-1-94] | 2.16
O=C(Nc1ccn(-c2c(F)cccc2F)n1)c1cccnc1Cl [Compound I-1-95] | 1.96
O=C(Nc1ccn(-c2c(F)cccc2F)n1)c1ccncc1C(F)(F)F [Compound I-1-97] | 2.16
CCc1nnccc1C(=O)Nc1ccn(-c2c(F)cccc2F)n1 [Compound I-1-98] | 1.73
O=C(Nc1ccn(-c2c(F)cccc2F)n1)c1nccnc1Cl [Compound I-1-100] | 2.15
CC1=C(C(=O)Nc2ccn(-c3c(F)cccc3F)n2)SCCO1 [Compound I-1-101] | 2.41
O=C(Nc1ccn(-c2c(F)cccc2F)n1)C1=C(C(F)(F)F)OCCS1 [Compound I-1-102] | 2.56
Cc1ccsc1C(=O)Nc1ccn(-c2c(F)cccc2F)n1 [Compound I-1-103] | 2.64

Compound | log P
O=C(Nc1ccn(-c2c(F)cccc2F)n1)c1sccc1I [Compound I-1-104] | 2.96
O=C(Nc1ccn(-c2c(F)cccc2F)n1)c1ccsc1I [Compound I-1-105] | 2.76
Cc1noc(C(F)F)c1C(=O)Nc1ccn(-c2c(F)cccc2F)n1 [Compound I-1-106] | 2.53
Cc1nn(C)cc1C(=O)Nc1ccn(-c2c(F)cccc2F)n1 [Compound I-1-107] | 1.71
Cn1cc(C(=O)Nc2ccn(-c3c(F)cccc3F)n2)c(I)n1 [Compound I-1-108] | 2.03
Cc1nn(C)c(C)c1C(=O)Nc1ccn(-c2c(F)cccc2F)n1 [Compound I-1-109] | 1.77
Cc1nn(C)c(F)c1C(=O)Nc1ccn(-c2c(F)cccc2F)n1 [Compound I-1-110] | 1.98
O=C(Nc1ccn(-c2c(F)cccc2F)n1)c1ccnn1C(F)F [Compound I-1-111] | 2.40
Cn1nc(C(F)(F)F)c(C(=O)Nc2ccn(-c3c(F)cccc3F)n2)c1F [Compound I-1-112] | 2.53
Cc1nc(C)c(C(=O)Nc2ccn(-c3c(F)cccc3F)n2)s1 [Compound I-1-113] | 2.09
Cc1nc(C(F)(F)F)c(C(=O)Nc2ccn(-c3c(F)cccc3F)n2)s1 [Compound I-1-114] | 2.58
O=C(Nc1ccn(-c2c(F)cccc2F)n1)c1snc(Cl)c1Cl [Compound I-1-115] | 3.33
Cc1nonc1C(=O)Nc1ccn(-c2c(F)cccc2F)n1 [Compound I-1-116] | 2.53
O=C(Nc1ccn(-c2cc(Cl)ccc2Cl)n1)c1ccccc1Br [Compound I-1-119] | 3.40
O=C(Nc1ccn(-c2c(Cl)cccc2Cl)n1)c1ccccc1C(F)(F)F [Compound I-1-120] | 3.05
O=C(Nc1ccn(-c2c(Cl)cccc2Cl)n1)c1ccccc1Br [Compound I-1-122] | 2.88
O=C(Nc1ccn(-c2c(Cl)cccc2Cl)n1)c1cccnc1C(F)(F)F [Compound I-1-124] | 2.57
O=C(Nc1ccn(-c2ccccc2[N+](=O)[O-])n1)c1ccccc1Cl [Compound I-1-125] | 2.46
CS(=O)(=O)c1ccccc1-n1ccc(NC(=O)c2ccccc2Cl)n1 [Compound I-1-126] | 1.96
O=C(Nc1ccn(-c2ccccn2)n1)c1ccccc1Br [Compound I-1-127] | 2.36
O=C(Nc1ccn(-c2ncccc2F)n1)c1ccccc1Cl [Compound I-1-129] | 2.05
O=C(Nc1ccn(-c2ncccc2F)n1)c1ccccc1Br [Compound I-1-130] | 2.12
O=C(Nc1ccn(-c2ncccc2F)n1)c1c(F)cccc1F [Compound I-1-132] | 1.99
O=C(c1cccnc1C(F)(F)F)N(C(=O)c1cccnc1C(F)(F)F)c1ccn(-c2ncccc2F)n1 [Compound I-1-134] | 2.93
O=C(Nc1ccn(-c2ncccc2Cl)n1)c1ccccc1C(F)(F)F [Compound I-1-135] | 2.41
O=C(Nc1ccn(-c2ncccc2Cl)n1)c1ccccc1I [Compound I-1-138] | 2.36

Compound | log P
CC(=O)N(C(=O)c1ccccc1C(F)(F)F)c1ccn(-c2ncc(F)cc2F)n1 [Compound I-1-142] | 2.97
O=C(Nc1ccn(-c2ncc(F)cc2F)n1)c1ccccc1Cl [Compound I-1-143] | 2.32
O=C(Nc1ccn(-c2ncc(F)cc2F)n1)c1ccccc1Br [Compound I-1-144] | 2.36
O=C(Nc1ccn(-c2ncc(F)cc2F)n1)c1ccccc1[N+](=O)[O-] [Compound I-1-147] | 2.00
O=C(Nc1ccn(-c2ncc(F)cc2F)n1)c1ccccc1O [Compound I-1-148] | 2.48
O=C(Nc1ccn(-c2ncc(F)cc2F)n1)c1ccccc1SC(F)(F)F [Compound I-1-149] | 2.98
O=C(Nc1ccn(-c2ncc(F)cc2F)n1)c1ccccc1-n1cncn1 [Compound I-1-150] | 1.47
O=C(Nc1ccn(-c2ncc(F)cc2F)n1)c1cccnc1C(F)(F)F [Compound I-1-151] | 2.02
O=C(Nc1ccn(-c2ncc(F)cc2F)n1)c1cccnc1Cl [Compound I-1-152] | 1.72
O=C(Nc1ccn(-c2ncc(F)cc2F)n1)c1ccncc1C(F)(F)F [Compound I-1-153] | 1.96
O=C(Nc1ccn(-c2ncc(F)cc2F)n1)c1cncnc1C(F)(F)F [Compound I-1-154] | 2.00
O=C(Nc1ccn(-c2ncc(F)cc2F)n1)C1=C(C(F)(F)F)OCCS1 [Compound I-1-155] | 2.35
Cn1cc(C(=O)Nc2ccn(-c3ncc(F)cc3F)n2)c(C(F)(F)F)c1 [Compound I-1-156] | 2.31
Cc1noc(C(F)F)c1C(=O)Nc1ccn(-c2ncc(F)cc2F)n1 [Compound I-1-157] | 2.33
Cn1nc(C(F)(F)F)c(C(=O)Nc2ccn(-c3ncc(F)cc3F)n2)c1F [Compound I-1-158] | 2.36
O=C(Nc1ccn(-c2ncc(F)cc2F)n1)c1snc(Cl)c1Cl [Compound I-1-159] | 3.06
Cc1nnsc1C(=O)Nc1ccn(-c2ncc(F)cc2F)n1 [Compound I-1-160] | 1.91
O=C(Nc1ccn(-c2nc(F)c(F)cc2F)n1)c1ccccc1C(F)(F)F [Compound I-1-162] | 2.78
O=C(Nc1ccn(-c2nc(F)c(F)cc2F)n1)c1ccccc1Cl [Compound I-1-163] | 2.64
O=C(Nc1ccn(-c2nc(F)c(F)cc2F)n1)c1ccccc1I [Compound I-1-165] | 3.04
O=C(Nc1ccn(-c2nc(F)c(F)cc2F)n1)c1c(F)cccc1F [Compound I-1-166] | 2.51
O=C(Nc1ccn(-c2nc(F)c(F)cc2F)n1)c1ncccc1C(F)(F)F [Compound I-1-167] | 3.88
O=C(Nc1ccn(-c2ncccn2)n1)c1ccccc1Br [Compound I-1-168] | 1.72
O=C(Nc1ccn(-c2ncnc(F)c2F)n1)c1ccccc1Br [Compound I-1-170] | 2.46
O=C(Nc1ccn(-c2ncnc(F)c2F)n1)c1c(F)cccc1F [Compound I-1-171] | 2.29
O=C(Nc1ccn(-c2nccnc2F)n1)c1ccccc1C(F)(F)F [Compound I-1-173] | 2.24
